From a melting point compilation (Tetko et al.; mined from patent text by program, amines drawn as free bases though some values may be those of a salt)

First: COC(=O)Cc1ccccc1Cc1ccccc1C(=O)O
Second: CCCCC#CCCOc1ccc(/C=C/C(=O)Nc2ccccc2C(=O)O)cc1OC
The melting point of the first is lower: 121 to 123 °C for the first, 169 to 170 °C for the second.

Compared with `CCCCOC1CCC(=O)N1` (stereo not given), `CCCCOc1ccc(C=C2C(=O)C3(C)CCC2C3(C)C)cc1` (stereo not given) is higher in melting point: 36 to 38 °C for the first, 62 °C for the second.

First: CCNc1cncc(C(=NCCO[N+](=O)[O-])NC#N)c1
Second: CC(C)(C)n1cc(C#N)c2cc([N+](=O)[O-])cnc21
The melting point of the first is lower: 100 °C for the first, 216 to 218 °C for the second.

First: CN(C(=O)C1CCn2cccc21)c1ccccc1 (stereo not given)
Second: COC(=O)C1(CCCN2CCN(c3ccccc3)CC2)Oc2ccccc2CCC1O (stereo not given)
The melting point of the first is higher: 112 °C for the first, 98 to 99 °C for the second.

First: CCC(O)(c1ccc(F)cc1)c1ccc(OCc2cccc(C)n2)cc1 (stereo not given)
Second: CC(C)(O)c1cccc(OCc2nc3cc(F)ccc3s2)c1
The melting point of the first is lower: 103 to 104 °C for the first, 124 to 125 °C for the second.

First: COc1ccc(C(NCCC2CCCCC2)c2cccc(Nc3c(N)c(=O)c3=O)c2)cc1 (stereo not given)
Second: CCCCc1ccc(NCCS(=O)(=O)NCCCOc2cccc(CN3CCCCC3)c2)cc1
The melting point of the first is higher: 168 to 171 °C for the first, 115 to 119 °C for the second.

First: CCCCCCC(C)(C)c1cc(OCc2ccccc2)c(C2=C(C(C)(C)C#N)CCC(C)C2)c(OCc2ccccc2)c1 (stereo not given)
Second: CC(C)(C)OC(=O)NCCCCn1c(-c2ccccc2)nc2c(N)nc3ccccc3c21
The melting point of the first is lower: 65 to 66 °C for the first, 182 to 183 °C for the second.

Compared with `Cc1nc(-c2ccc(Cl)cc2)nn1CCC=O`, `O=c1c2cc(I)ccc2nc(Cl)n1-c1ccc(Cl)cc1` is higher in melting point: 108 to 109 °C for the first, 178 to 180 °C for the second.

First: CC(=O)Nc1nc(CCc2ccc(CN3CCN(C(=O)OC(C)(C)C)CC3)cc2)cs1
Second: CC(C)(C)OC(=O)N1CCC(c2cn(S(C)(=O)=O)c3ccccc23)CC1
The melting point of the first is higher: 140 to 141 °C for the first, 136 to 137 °C for the second.

Compared with `O=c1nc(N(Cc2nnn[nH]2)c2ccc(Cl)cc2)sc2ncccc12`, `CN(C)CCNC(=O)Cn1c(-c2cccc(Cl)c2)nc2cccnc21` is lower in melting point: 258 to 259 °C for the first, 124 to 125 °C for the second.

First: CCOC(=O)CCCCn1c(=O)[nH]c2ccc(F)cc2c1=O
Second: CCOC(=O)CCn1c(=O)[nH]c2ccccc2c1=O
The melting point of the first is lower: 131 to 132 °C for the first, 192 to 194 °C for the second.

Going from `CCNC(=O)c1ccc(N2CCN(Cc3cnc4c(c3)NC(=O)C3CCCCN43)CC2)cc1` (stereo not given) to `COc1cccc(N2CCN(c3cc4c(cc3F)ncc3c4c(=O)c(C(=O)O)cn3C)CC2C)c1` (stereo not given), the melting point rises from 233 °C to 285 °C.

First: O=C(Nc1ccc2[nH]ncc2c1)c1ccccc1NCC1CCOCC1
Second: O=C(Nc1ccccc1)c1ccc(F)c([N+](=O)[O-])c1
The melting point of the first is higher: 174 °C for the first, 155 to 157 °C for the second.

First: Cc1ccc(CNC(=O)c2ccc3n2Cc2ccccc2N(C(=O)c2ccc(-c4ccccc4C)c(C)c2)C3)c(C)c1
Second: O=C(O)CCC1(NC(=O)c2ccc(Cl)c(Cl)c2)C(=O)N(CCCc2ccccc2)c2ccccc21 (stereo not given)
The melting point of the first is lower: 159 to 161 °C for the first, 242 to 243 °C for the second.

First: COc1cccc(NC(=O)c2ccc([N+](=O)[O-])cc2)c1
Second: COc1ccc(Oc2cccc3ncnc(NC(=O)Nc4cccc(OC)c4)c23)cc1
The melting point of the first is lower: 189 to 191 °C for the first, 209 to 210 °C for the second.

First: CCc1cc(-c2cccnc2)nn1-c1ccc(NCc2ccc(OCCCC#N)cc2)cc1
Second: Cc1oc(-c2ccccc2)nc1CCOc1ccc(C[C@@H](C(=O)O)N2CCN(S(=O)(=O)c3ccccc3[N+](=O)[O-])CC2)cc1
The melting point of the first is lower: 131 to 132 °C for the first, 171 to 173 °C for the second.

First: CSc1ccc(C2=C(c3ccc(F)cc3C)CCC2)cc1
Second: CC(C)n1c(-c2ccccc2)nc(-c2ccc(F)cc2)c1C=O
The melting point of the first is lower: 67 to 68 °C for the first, 130 to 134 °C for the second.

First: CCCCCCCCCCCCCC(=O)Nc1ccc(Cl)c(NC(=CC(=O)OCC)OCC)c1
Second: CCOC(=O)/C=C/c1ccc(OCCOC)cc1NC(=O)c1ccc(Cl)cc1Cl
The melting point of the first is lower: 115 to 118 °C for the first, 170 °C for the second.

First: CC1(O[Si](C)(C)C(C)(C)C)CN(c2ccc([N+](=O)[O-])cc2F)C1
Second: COC(=O)C1=C(C)NC(C)=C(c2nc(CCl)no2)C1c1cccc([N+](=O)[O-])c1 (stereo not given)
The melting point of the first is lower: 98 to 99.5 °C for the first, 200 to 202 °C for the second.

First: O=C(O)C1(COc2ccc(Br)cc2)COC1
Second: O=Cc1ccc(OCc2ccccc2)c2c1OCO2
The melting point of the first is higher: 122 to 124 °C for the first, 81 to 82 °C for the second.

First: CCOC(=O)NN(C)c1cc(C)c(-c2cccc([N+](=O)[O-])c2)nn1
Second: CCOC(=O)Cc1ccc2c(c1)C(=O)c1ccccc1CS2
The melting point of the first is higher: 142 to 144 °C for the first, 98 to 100 °C for the second.

First: CCCOc1ccc2c(c1)C(N(C)S(C)(=O)=O)=CC(C)(C)O2
Second: CCOC(=O)COc1ccc(C[C@H](C)NS(=O)(=O)c2ccccc2)cc1
The melting point of the first is lower: 93 to 95 °C for the first, 109 to 110 °C for the second.

Compared with `COC(COC(C)=O)C1(O)CCC2C3CCC4=CC(=O)CCC4(C)C3CCC21C` (stereo not given), `Cc1ccc(S(=O)(=O)NC2CCCC2NC(=O)OC(C)(C)C)cc1` (stereo not given) is lower in melting point: 145 to 147 °C for the first, 129 to 130 °C for the second.

First: COc1ccc(Oc2ccccc2)c(N)c1
Second: COc1ccc(S(=O)(=O)Nc2cc(C(F)(F)F)ccc2Oc2ccccc2C(=O)O)cc1
The melting point of the first is lower: 112 to 114 °C for the first, 139 °C for the second.

First: CC(=O)OC1N=C(c2ccccc2Cl)c2nc(Cl)ccc2-n2c1n[nH]c2=O (stereo not given)
Second: CC(C)c1nc2c([nH]1)C(=O)N1CCN=C1N2Cc1ccccc1Cl
The melting point of the first is lower: 232 to 236 °C for the first, 250 to 255 °C for the second.

First: COc1cc2c(cc1Cl)C(O)Cc1ccc(F)cc1S2 (stereo not given)
Second: COc1ccc(C2=CNC(=O)NC2)cc1OC1Cc2ccccc2C1
The melting point of the first is lower: 143 to 145 °C for the first, 198 to 201 °C for the second.

First: O=S1(=O)N=CN(C2CC2)c2cc(F)cc(Cl)c21
Second: CC(C)(C)OC(=O)c1ncn2c1[C@@H]1CCCN1C(=O)c1c-2ccc(Cl)c1Cl
The melting point of the first is higher: 252 to 255 °C for the first, 213 to 214 °C for the second.

Compared with `COC(=O)c1cc(C)c(C)cc1C(=O)OC`, `COCOc1cccc(NC(=O)OC(C)(C)C)c1I` is higher in melting point: 54 to 55 °C for the first, 82 to 84 °C for the second.

First: O=C(/C=C/c1ccc(O)cc1)CC(=O)/C=C/c1ccc(O)cc1Cl
Second: COc1ccc2cc(C(=O)CCCCCCC(=O)O)ccc2c1
The melting point of the first is lower: 131 to 138 °C for the first, 148 to 149 °C for the second.

Compared with `Cc1cc(-c2cc(F)c(F)cc2-c2ccc(S(N)(=O)=O)cc2)ccc1Cl`, `CCNC(=O)Nc1ccc(-c2cc3c(Nc4cccc(Cl)c4)ncnc3[nH]2)cc1` is higher in melting point: 142 to 143 °C for the first, over 290 °C for the second.

First: O=C(O)/C(=C/c1cnc(CCc2ccccc2)n1Cc1ccc(C(=O)O)cc1)Cc1cccs1
Second: Oc1cccc2c1c1ccccc1n2Cc1ccccc1
The melting point of the first is higher: 214 °C for the first, 119 to 122 °C for the second.

Compared with `COc1cc(C(=O)N2CCC(CCN3CCC(C(=O)c4nc5ccccc5n4CCCC(=O)O)CC3)(c3ccc(Cl)c(Cl)c3)C2)cc(OC)c1OC` (stereo not given), `COc1ccccc1NC(=O)Nc1cccc(-n2c(=O)c(CCC(=O)ON3C(=O)CCC3=O)nc3cccnc32)c1` is higher in melting point: 125 to 140 °C for the first, 235 to 237 °C for the second.

Compared with `CCCOc1ccc(S(=O)(=O)N2CCN(CCO)CC2)cc1-c1nc2c(CCC)nn(C)c2c(=O)[nH]1`, `CC1(C)CN=C2C(=O)c3cc(S(=O)(=O)N4CCCC4)ccc3N2C1` is higher in melting point: 158 to 159 °C for the first, 200 to 201 °C for the second.

First: CC(O)(c1ccccc1)C1CCN1C(c1ccccc1)c1ccccc1 (stereo not given)
Second: c1ccc2c(c1)Cn1c(cc3ccccc31)CN2
The melting point of the first is lower: 152 to 154 °C for the first, 176 to 177 °C for the second.

Compared with `FC(F)(F)c1cc(CCC2OCCNC2c2ccccc2)cc(C(F)(F)F)c1` (stereo not given), `O=C(c1ccccc1)c1cnn2c(-c3cccc(C(F)(F)F)c3)ccnc12` is higher in melting point: 114 to 116 °C for the first, 148 to 150 °C for the second.

First: CN1CCN(CCC#Cc2csc3ncc(C#N)c(Nc4ccc5[nH]ccc5c4)c23)CC1
Second: CS(=O)CCc1nc2nc[nH]c2c2nc(-c3ccc(-c4ccccc4)cc3)nn12 (stereo not given)
The melting point of the first is lower: 184 to 186 °C for the first, 188 °C for the second.

First: CCC(=O)NCCC1CCc2cc(F)c(O)cc21 (stereo not given)
Second: CCCCC/C(=C\C=C\C(=O)O)c1cccc(F)c1
The melting point of the first is higher: 93 to 96 °C for the first, 84 to 85.5 °C for the second.

Compared with `Cc1cc(CCCCCOc2c(C)cc(-c3cn(C)nn3)cc2C)on1`, `CCc1cc(CCCOc2c(C)cc(C#N)cc2C)on1` is lower in melting point: 117 to 118 °C for the first, 50 to 51 °C for the second.

Compared with `OCC(O)Cc1nccn1CCCCc1ccc(OCc2coc(/C=C/c3c(F)cccc3F)n2)cc1` (stereo not given), `Cc1oc(-c2ccc3ccccc3c2)nc1COc1ccc(C=O)cc1` is higher in melting point: 123 to 125 °C for the first, 163 to 164 °C for the second.

First: CSc1nc(C)cc(Cl)n1
Second: CSc1nc(O)nc(-c2ccncc2)n1
The melting point of the first is lower: 37 to 38 °C for the first, 270 to 272 °C for the second.

First: O=S(CCCCNC(P(=O)(O)O)P(=O)(O)O)c1ccccn1 (stereo not given)
Second: C=CCNC(=S)Cc1ccccn1
The melting point of the first is higher: 235 to 240 °C for the first, 67 to 68 °C for the second.

First: O=C(Cl)c1ccc(Cl)cc1Sc1ccccc1
Second: Oc1cc(-c2c3ccccc3c(Br)c3sc4ccccc4c23)cc(Br)c1O
The melting point of the first is lower: 94 to 96 °C for the first, 212 to 213 °C for the second.

Compared with `CC(=O)Nc1ccc(F)c(N2CCN(C(C)=O)CC2)n1`, `C=CCNC(=O)N1CC(OCc2ccc(Cl)c(Cl)c2)C1` is lower in melting point: 178 to 180 °C for the first, 88 to 89 °C for the second.

First: C=CC1CC1(C(=O)OC)C(=O)OCc1ccco1 (stereo not given)
Second: CCO/C=C/C(=O)Nc1cccc(Br)c1OC
The melting point of the first is lower: 67.5 to 68.5 °C for the first, 102 to 104 °C for the second.

First: CC(C)(C)c1cc2c(c(C(=O)Nc3ccc(S(=O)(=O)C(F)(F)F)cc3Cl)c1O)CCC2
Second: O=C(Nc1cccc(S(=O)(=O)NCC(F)(F)F)c1)c1cnn2c(C(F)F)cc(-c3ccc(C(F)(F)F)cc3)nc12
The melting point of the first is lower: 172 to 173 °C for the first, 257 °C for the second.

First: CCCCCCC1CC(c2ccc(CCCC)cc2)C(=O)O1 (stereo not given)
Second: CCCc1c(OCCCCCc2ccc3cc(O)c(O)cc3c2)ccc(C(=O)O)c1O
The melting point of the first is lower: 37.7 °C for the first, 165 to 167 °C for the second.

First: CCC(=O)C(CC(=O)c1ccccc1)C(O)=S (stereo not given)
Second: CC(C)n1cc(Cc2cc3cccc(-c4cccc(C(=O)NCCO)c4)c3s2)ccc1=O
The melting point of the first is lower: 110 to 112 °C for the first, 178 to 183 °C for the second.

Compared with `CC(=NO)c1ccnc(N(C)C)c1`, `Cc1cc(N(C)[C@H]2CN(C(=O)CC#N)CC[C@H]2C)n2ncnc2n1` is lower in melting point: 145 to 148 °C for the first, 119 °C for the second.

Compared with `COc1cc2c(cc1OC)CN(CCc1cccc(NC(=O)c3cccc4c(=O)c5cccc(F)c5[nH]c34)c1)CC2`, `COc1ccc(/C=C/c2c(Cl)cncc2Cl)c2cc(-c3ccncc3)oc12` is higher in melting point: 178 °C for the first, 204 to 206 °C for the second.

First: Cc1csc(C)c1NCc1nnc(S)n1C
Second: Nc1cc(=O)n(CCC2=CCCCC2)c(=O)n1CCC1=CCCCC1
The melting point of the first is higher: 184 to 187 °C for the first, 172 to 174 °C for the second.
